Results from patent US20190274290A1, “GENETICALLY MODIFIED MOUSE MODEL FOR HUMAN HEPATOCYTE XENOTRANSPLANTATION” (The Jackson Laboratory, priority 2016, published 2019).

Key:
NSG-PiZ mice [1] = assay: Percentage of human hepatocytes in engrafted mouse liver (flow cytometry, anti-HLA-ABC / CD324); format: in vivo; conditions: MCT-treated NSG-PiZ mice; flow cytometry with anti-HLA antibody
Experimental: After dissociation, cells were stained on ice for 30 minutes with anti-mouse/human CD324 (Biolegend) and anti-HLA-ABC (BD Biosciences) antibodies to determine human hepatocyte percentage. Cells were then washed twice with 1×PBS and resuspended in 1×PBS supplemented with 0.5% FHS and 2 mM EDTA. Cells were acquired using FACS-LSRII flow cytometer (BD Biosciences) and analyzed with FlowJo software (version 10.1; Tree Star Inc.).
(§1) All recipient mice were males, age 6-10 weeks, and they were anesthetized by isoflurane inhalation in a closed ventilation chamber. For intrasplenic injection, an incision was made on mouse left paralumbar fossa in order to expose the spleen. […] The exposed spleen was returned to the abdominal cavity and the incision was closed with an absorbable suture (4-0 Vicryl). Vet Bond was applied topically to seal the skin incision. For partial hepatectomy, median-line incision was made to expose the liver. The median lobe of the liver and the left lateral lobe were seemly tied off with 4-0 silk Blake braided suture and excised. Two-thirds of the total liver was removed by partial hepatectomy. The remaining liver was gently returned to the abdominal cavity. Finally, the opposing sections of the abdominal wall were aligned at the ventral midline, and an absorbable suture (4-0 Vicryl) was applied to close the incision. […]

NSG-PiZ mice [2] = assay: Human hepatocyte engraftment in NSG-PiZ mice, serum human albumin ELISA; format: in vivo, mouse; conditions: for human hepatocyte engraftment (serum human albumin), comparison of groups: two doses of 50 mg/kg intraperitoneal MCT 14 and 7 days before engraftment, 50 mg/kg
Experimental: Human albumin levels were evaluated post-engraftment by using the human Albumin ELISA quantitation set (Bethyl Labs) as described by the manufacturer. For all assays, after incubation with the HRP-conjugated antibody, 3,3′,5,5′-tetramethylbenzidine (TMB) peroxidase substrate (KPL) was applied, and the reactions were stopped by adding 2 […] (Fisher Scientific) after 15-30 min. Plates were read at […] on a VersaMax microplate reader (Molecular Devices).
Animals were pre-treated with 50 mg/kg MCT (Oakwood Chemical) intraperitoneally 7 days or 14 and 7 days prior to engraftment or treated at the time of engraftment with 1 μg purified NA/LE hamster anti-mouse CD95 antibody (first apoptosis signal [FAS], BD PharMingen) intravenously.
To investigate additional methods for increased human hepatocyte engraftment, two approaches used in the liver xenograft field were tested: monocrotaline (MCT) and a mouse-specific anti-Fas antigen (CD95) antibody. MCT is a pyrrolizidine plant alkaloid with known endothelial toxicity in the lung, liver, and kidney. […] The anti-CD95 antibody recognizes mouse Fas and leads to cytolytic activity of cells expressing mouse Fas by inducing apoptosis of mouse hepatocytes and other cells.
as §1, with “cavity.” for “cavity. Finally, the opposing sections of the abdominal wall were aligned at the ventral midline, and an absorbable suture (4-0 Vicryl) was applied to close the incision.”

## C[C@H]1C(=O)O[C@@H]2CCN3CC=C(COC(=O)[C@](C)(O)[C@]1(C)O)[C@H]23 [MCT, monocrotaline]
NSG-PiZ mice [1]
  hepatocytes of human origin: at least 25%
NSG-PiZ mice [2]; MCT 50 mg/kg before engraftment or 1 μg anti-mouse CD95 antibody at engraftment, versus intrasplenic engraftment alone
  human hepatocyte engraftment (serum human albumin): significantly increased
NSG-PiZ mice [2]
  human hepatocyte engraftment (serum human albumin), comparison of groups: greatest engraftment
NSG-PiZ mice [2]; listed as monocrotaline
  human hepatocyte engraftment (serum human albumin), comparison of groups: greatest serum human albumin concentrations
